Measurements: patent publication US20240217967A1, “INDOLINE DERIVATIVES AS DDRS INHIBITORS” (CHIESI FARMACEUTICI S.P.A., priority 2021, published 2024)

How the values were obtained:
DDR2 [1] = biological target: T1, DDR2 (Homo sapiens, UniProt Q16832); experiment: DDR2 LanthaScreen Europium Kinase Binding assay; conditions: binding affinity; IC50 converted in Ki using Cheng-Prusoff; read-out: Ki DDR2
T1 sequence (Q16832 22-855): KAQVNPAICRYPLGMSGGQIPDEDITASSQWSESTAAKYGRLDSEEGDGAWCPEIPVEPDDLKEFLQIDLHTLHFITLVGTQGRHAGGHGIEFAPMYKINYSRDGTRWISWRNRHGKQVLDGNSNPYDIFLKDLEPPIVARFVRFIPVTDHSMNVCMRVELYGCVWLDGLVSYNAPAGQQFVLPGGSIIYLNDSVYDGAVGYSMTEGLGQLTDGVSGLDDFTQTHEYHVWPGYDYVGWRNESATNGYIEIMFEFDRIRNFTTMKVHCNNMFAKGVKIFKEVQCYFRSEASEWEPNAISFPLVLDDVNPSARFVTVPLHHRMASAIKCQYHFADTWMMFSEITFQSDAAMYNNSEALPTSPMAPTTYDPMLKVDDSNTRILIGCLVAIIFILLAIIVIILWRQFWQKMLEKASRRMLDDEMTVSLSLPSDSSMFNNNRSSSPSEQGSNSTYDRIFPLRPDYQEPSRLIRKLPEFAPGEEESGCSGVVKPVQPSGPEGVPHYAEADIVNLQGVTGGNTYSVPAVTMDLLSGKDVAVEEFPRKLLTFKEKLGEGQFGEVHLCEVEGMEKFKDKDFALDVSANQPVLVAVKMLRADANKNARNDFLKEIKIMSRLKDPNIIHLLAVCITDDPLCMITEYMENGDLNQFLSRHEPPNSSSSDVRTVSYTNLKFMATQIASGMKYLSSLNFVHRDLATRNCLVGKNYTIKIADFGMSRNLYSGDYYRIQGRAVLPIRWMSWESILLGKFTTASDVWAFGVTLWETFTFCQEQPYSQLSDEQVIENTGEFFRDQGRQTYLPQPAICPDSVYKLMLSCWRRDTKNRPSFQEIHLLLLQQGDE
How it was run: (§1)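 Binding by TR-FRET tracer displacement: compounds incubated 1 h at room temperature with 5 nM DDR1 plus 20 nM Kinase Tracer 178, or 5 nM DDR2 plus 10 nM tracer, and 2 nM Eu anti-GST antibody in pH 7.5 HEPES/MgCl2/EGTA/BRIJ35 buffer. 665/615 nm ratio gave four-parameter IC50, converted to Ki via Cheng-Prusoff.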

DDR1 [2] = biological target: T2, DDR1 (Homo sapiens, UniProt Q08345); experiment: DDR1 LanthaScreen Europium Kinase Binding assay; conditions: binding affinity; IC50 converted in Ki using Cheng-Prusoff; read-out: Ki DDR1
T2 sequence (Q08345 19-913): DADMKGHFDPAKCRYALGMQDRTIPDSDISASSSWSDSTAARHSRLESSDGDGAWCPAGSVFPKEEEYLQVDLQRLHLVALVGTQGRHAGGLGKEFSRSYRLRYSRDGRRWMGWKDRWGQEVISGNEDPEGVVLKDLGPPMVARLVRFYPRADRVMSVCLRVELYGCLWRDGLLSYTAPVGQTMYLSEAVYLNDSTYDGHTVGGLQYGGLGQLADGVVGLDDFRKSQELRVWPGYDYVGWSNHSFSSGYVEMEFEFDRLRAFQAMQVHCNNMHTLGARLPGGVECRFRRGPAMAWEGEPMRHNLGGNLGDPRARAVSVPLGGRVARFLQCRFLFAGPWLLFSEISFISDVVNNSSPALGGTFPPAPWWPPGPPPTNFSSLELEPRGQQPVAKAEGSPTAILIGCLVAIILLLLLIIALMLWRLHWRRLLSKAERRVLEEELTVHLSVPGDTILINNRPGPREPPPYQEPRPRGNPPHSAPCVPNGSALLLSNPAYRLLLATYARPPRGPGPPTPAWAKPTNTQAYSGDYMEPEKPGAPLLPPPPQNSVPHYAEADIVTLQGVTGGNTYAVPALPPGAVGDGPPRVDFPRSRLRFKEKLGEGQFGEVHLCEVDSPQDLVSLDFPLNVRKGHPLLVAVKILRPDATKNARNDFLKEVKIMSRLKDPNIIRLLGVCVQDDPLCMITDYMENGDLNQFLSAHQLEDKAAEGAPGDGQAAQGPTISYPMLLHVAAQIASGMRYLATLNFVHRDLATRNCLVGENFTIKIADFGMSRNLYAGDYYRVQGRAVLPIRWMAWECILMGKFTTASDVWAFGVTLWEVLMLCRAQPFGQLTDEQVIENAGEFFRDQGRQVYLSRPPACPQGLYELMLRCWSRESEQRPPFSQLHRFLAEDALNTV
How it was run: as §1

DDR2 [3] = biological target: T1, DDR2; experiment: DDR2 cell based assay (phospho-ELISA in HEK293T-DDR2 recombinant cells, collagen II stimulation); conditions: bovine Type II Collagen stimulation
Experimental: The inhibition of DDR2 phosphorylation by compounds was evaluated in HEK293T-DDR2 recombinant cells by phospho-ELISA assay. Briefly, HEK293T-DDR2 cells were seeded in poly-D-lysine-coated 24-well plates at a density of 250.000 cells/well and incubated for 1.5 hours at 37° C. and 5% CO2 in DMEM+10% FBS. After that, the medium was changed to serum-free DMEM and cells were incubated for 3 hours. Then. test compounds were added at different concentrations 30 minutes before stimulation with bovine Type II Collagen at 50 μg/ml for further 3 hours. For DDR2 phospho-ELISA assay (DuoSet IC Human Phospho-DDR2; R&D Systems), protein extracts were obtained by adding 60 μl/well of lysis buffer prepared according to the manufacturer's instructions. Protein concentration in the samples was determined by BCA assay and the levels of phospho-DDR2 were determined following R&D Systems indications. Raw data were normalized to maximal inhibition control (0% for normalization) and positive control (100% for normalization; cells treated with […] collagen II) and IC50 parameters were calculated in GraphPad Prism 8.0 software, using sigmoidal dose-response curve fitting with variable slope.

DDR1 [4] = biological target: T2, DDR1; experiment: DDR1 cell based assay (PathHunter U2OS DDR1, collagen II stimulation); conditions: U2OS-DDR1 cells, bovine Type II Collagen stimulation
How it was run: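 U2OS-DDR1 PathHunter cells preincubated 30 min with compound, then stimulated overnight at 37 °C with 20 μg/ml bovine type II collagen. Luminescent complementation signal read after 1 h detection at room temperature; normalized to vehicle (0%) and collagen-only (100%) controls, IC50 from variable-slope sigmoidal fit.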

Row | Ki (DDR2 [1]) [nM] | Ki (DDR1 [2]) [nM] | IC50 (DDR2 [3]) [nM] | IC50 (DDR1 [4]) [nM] | Compound
1 | < 25 | < 25 | < 25 | < 25 | Cc1cn(-c2cc(NC(=O)c3ccc4c(c3)N(Cc3cnc5[nH]ccc5c3)CC4)cc(C(F)(F)F)c2)cn1 [Example 2, 1-((1H-pyrrolo[2,3-b]pyridin-5-yl)methyl)-N-(3-(4-methyl-1H-imidazol-1-yl)-5-(trifluoromethyl)phenyl)indoline-6-carboxamide]
2 | < 25 | < 25 | 50 to 80 | < 25 | Cc1cn(-c2cc(NC(=O)c3ccc4c(c3)N(Cc3cnc5[nH]ncc5c3)CC4)cc(C(F)(F)F)c2)cn1 [Example 6, 1-((1H-pyrazolo[3,4-b]pyridin-5-yl)methyl)-N-(3-(4-methyl-1H-imidazol-1-yl)-5-(trifluoromethyl)phenyl)indoline-6-carboxamide]
3 | < 25 | < 25 | 25 to 50 | < 25 | Cc1cn(-c2cc(NC(=O)c3ccc4c(c3)N(Cc3cnc5[nH]nc(C)c5c3)CC4)cc(C(F)(F)F)c2)cn1 [Example 7, N-(3-(4-methyl-1H-imidazol-1-yl)-5-(trifluoromethyl)phenyl)-1-((3-methyl-1H-pyrazolo[3,4-b]pyridin-5-yl)methyl)indoline-6-carboxamide]
4 | < 25 | < 25 | < 25 | < 25 | CN1CCN(Cc2cc(NC(=O)c3ccc4c(c3)N(Cc3cnc5[nH]ccc5c3)CC4)cc(C(F)(F)F)c2)CC1 [Example 9, 1-((1H-pyrrolo[2,3-b]pyridin-5-yl)methyl)-N-(3-((4-methylpiperazin-1-yl)methyl)-5-(trifluoromethyl)phenyl)indoline-6-carboxamide]
5 | < 25 | < 25 | – | < 25 | CN(C)Cc1c[nH]c2ncc(CN3CCc4ccc(C(=O)Nc5cncc(C(F)(F)F)c5)cc43)cc12 [Example 83, 1-((3-((dimethylamino)methyl)-1H-pyrrolo[2,3-b]pyridin-5-yl)methyl)-N-(5-(trifluoromethyl)pyridin-3-yl)indoline-6-carboxamide]
6 | < 25 | < 25 | – | < 25 | Cc1n[nH]c2ncc(CN3CCc4ccc(C(=O)Nc5cc(CN6CC[C@@H](N(C)C)C6)nc(C(F)(F)F)c5)cc43)cc12 [Example 84, (R)-N-(2-((3-(dimethylamino)pyrrolidin-1-yl)methyl)-6-(trifluoromethyl)pyridin-4-yl)-1-((3-methyl-1H-pyrazolo[3,4-b]pyridin-5-yl)methyl)indoline-6-carboxamide]
7 | < 25 | < 25 | – | < 25 | Cc1n[nH]c2ncc(CN3CCc4ccc(C(=O)Nc5cc(OCCN6CCCC6)cc(C(F)(F)F)c5)cc43)cc12 [Example 85, 1-((3-methyl-1H-pyrazolo[3,4-b]pyridin-5-yl)methyl)-N-(3-(2-(pyrrolidin-1-yl)ethoxy)-5-(trifluoromethyl)phenyl)indoline-6-carboxamide]
8 | < 25 | < 25 | – | 25 to 50 | CN1CCN(Cc2ccc(NC(=O)c3ccc4c(c3)N(Cc3cnn5ccncc35)CC4)cc2C(F)(F)F)CC1 [Example 86, N-(4-((4-methylpiperazin-1-yl)methyl)-3-(trifluoromethyl)phenyl)-1-(pyrazolo[1,5-a]pyrazin-3-ylmethyl)indoline-6-carboxamide]
9 | < 25 | < 25 | – | < 25 | CN(C)Cc1c[nH]c2ncc(CN3CCc4ccc(C(=O)Nc5cccc(C(F)(F)F)c5)cc43)cc12 [Example 90, 1-((3-((dimethylamino)methyl)-1H-pyrrolo[2,3-b]pyridin-5-yl)methyl)-N-(3-(trifluoromethyl)phenyl)indoline-6-carboxamide]

Second part, the compound before the results:

Row | Compound | Ki (DDR2 [1]) [nM] | Ki (DDR1 [2]) [nM] | IC50 (DDR2 [3]) [nM] | IC50 (DDR1 [4]) [nM]
10 | Cc1cn(-c2cc(NC(=O)c3ccc4c(c3)N(Cc3cnc5cnccn35)CC4C)cc(C(F)(F)F)c2)cn1 (single isomer, unassigned) [Example 27, 1-(imidazo[1,2-a]pyrazin-3-ylmethyl)-3-methyl-N-(3-(4-methyl-1H-imidazol-1-yl)-5-(trifluoromethyl)phenyl)indoline-6-carboxamide] | < 25 | < 25 | < 25 | < 25
11 | CC1CN(Cc2cnc3[nH]ncc3c2)c2cc(C(=O)Nc3cccc(C(F)(F)F)c3)ccc21 (single isomer, unassigned) [Example 34, 1-((1H-pyrazolo[3,4-b]pyridin-5-yl)methyl)-3-methyl-N-(3-(trifluoromethyl)phenyl)indoline-6-carboxamide] | < 25 | < 25 | 25 to 50 | < 25
12 | Cc1cn(-c2cc(NC(=O)c3ccc4c(c3)N(Cc3cnc5ccccn35)CC4)cc(C(F)(F)F)c2)cn1 [Example 1, 1-(imidazo[1,2-a]pyridin-3-ylmethyl)-N-(3-(4-methyl-1H-imidazol-1-yl)-5-(trifluoromethyl)phenyl)indoline-6-carboxamide] | < 25 | < 25 | 50 to 80 | < 25
13 | Cc1cn(-c2cc(NC(=O)c3ccc4c(c3)N(Cc3cnc5cnccn35)CC4)cc(C(F)(F)F)c2)cn1 [Example 3, 1-(imidazo[1,2-a]pyrazin-3-ylmethyl)-N-(3-(4-methyl-1H-imidazol-1-yl)-5-(trifluoromethyl)phenyl)indoline-6-carboxamide] | < 25 | < 25 | 50 to 80 | < 25
14 | Cc1cn(-c2cc(C(=O)Nc3ccc4c(c3)N(C(=O)c3cnc5[nH]ncc5c3)CC4)cc(C(F)(F)F)c2)cn1 [Example 21, N-(1-(1H-pyrazolo[3,4-b]pyridine-5-carbonyl)indolin-6-yl)-3-(4-methyl-1H-imidazol-1-yl)-5-(trifluoromethyl)benzamide] | < 25 | < 25 | < 25 | 25 to 50
15 | Cc1n[nH]c2ncc(CN3CCc4ccc(C(=O)Nc5cc(CN(C)C)nc(C(F)(F)F)c5)cc43)cc12 [Example 82, N-(2-((dimethylamino)methyl)-6-(trifluoromethyl)pyridin-4-yl)-1-((3-methyl-1H-pyrazolo[3,4-b]pyridin-5-yl)methyl)indoline-6-carboxamide] | < 25 | < 25 | – | < 25
16 | Cn1nc(NC(=O)c2ccc3c(c2)N(Cc2cnc4cnccn24)CC3)cc1C(C)(C)C [Example 87, N-(5-(tert-butyl)-1-methyl-1H-pyrazol-3-yl)-1-(imidazo[1,2-a]pyrazin-3-ylmethyl)indoline-6-carboxamide] | < 25 | < 25 | – | 25 to 50
17 | O=C(Nc1cc(C(F)(F)F)ncn1)c1ccc2c(c1)N(Cc1cnc3cnccn13)CC2 [Example 88] | < 25 | < 25 | – | 50 to 80
18 | CC1CN(Cc2cnc3[nH]ncc3c2)c2cc(C(=O)Nc3cncc(C(F)(F)F)c3)ccc21 (stereo not drawn) [Example 91, 1-((1H-pyrazolo[3,4-b]pyridin-5-yl)methyl)-3-methyl-N-(5-(trifluoromethyl)pyridin-3-yl)indoline-6-carboxamide] | < 25 | < 25 | – | < 25
19 | CC1CN(Cc2cnc3cnccn23)c2cc(C(=O)Nc3cncc(C(F)(F)F)c3)ccc21 (stereo not drawn) [Example 92, 1-(imidazo[1,2-a]pyrazin-3-ylmethyl)-3-methyl-N-(5-(trifluoromethyl)pyridin-3-yl)indoline-6-carboxamide] | < 25 | < 25 | – | 25 to 50
